Data reported in publication PMC3177832, “Structure-Based Development of Small Molecule PFKFB3 Inhibitors: A Framework for Potential Cancer Therapeutic Agents Targeting the Warburg Effect” (PLoS ONE, 2011).
Entries after “also recorded” stand apart in the source; their conditions may differ.

Key:
HeLa cells [1] = assay: Flow cytometric analysis of cell death (Annexin V-FITC / PI); type: cell-based, human
Description: (§1) Cell growth inhibition was determined by an XTT-based in-vitro toxicology assay (Sigma-Aldrich) or trypan blue staining. Cells were plated at a density of 3.5×10^4 per well in a 24-well plate in DMEM containing 10% FCS. These cells were allowed to attach for 24 hours, and the media were replaced with fresh media containing either vehicle (dimethyl sulfoxide) or appropriate concentrations of test compounds. After 36 hours of incubation with either vehicle or compounds, cells were trypsinized and cell viability was determined by the trypan blue exclusion assay using a hemacytometer. For the XTT assay, cells were seeded into 96-well cell culture plates at a density of 0.6×10^4 per well. After the appropriate treatment described above, cells were incubated with 0.1 mg/ml of 2,3-bis(2-methoxy-4-nitro-5-sulfophenyl)-5-[(phenylamino)carbonyl]-2H-tetrazolium hydroxide (XTT) for 4 hours and then cell number was determined by the absorbance at 470 nm, which is proportional to the number of cells that remained attached to the plate. GI50s were calculated as the inhibitor concentration needed for 50% of vehicle-treated cell growth. The appearance of apoptotic or necrotic cells was determined by flow cytometric analysis of cells double stained with Annexin V-FITC and propidium iodide (PI). Apoptotic and necrotic cells were distinguished on the basis of double-labeling for Annexin V-FITC (Sigma-Aldrich) and PI, a membrane-impermeable DNA stain. Floating and freshly trypsinized cells were pooled, washed twice in binding buffer, and processed following manufacturer's instructions. The fluorescence of samples were analyzed by flow cytometry (FACSCalibur®, Becton Dickinson Immunocytometry, San Jose, CA) using the CellQuest (BD Bioscience, Immunocytometry Systems, San Jose, CA, USA) software.

PFKFB4 = target: T1, PFKFB4 (Homo sapiens, UniProt Q16877); assay: 2-Kase assay, isoform selectivity; type: biochemical; conditions: N4A = 6 µM, YN1 = 1.3 µM
T1 construct: His6; made in house; host or cells: Escherichia coli C41(DE3)
T1 sequence (Q16877 whole entry, canonical isoform): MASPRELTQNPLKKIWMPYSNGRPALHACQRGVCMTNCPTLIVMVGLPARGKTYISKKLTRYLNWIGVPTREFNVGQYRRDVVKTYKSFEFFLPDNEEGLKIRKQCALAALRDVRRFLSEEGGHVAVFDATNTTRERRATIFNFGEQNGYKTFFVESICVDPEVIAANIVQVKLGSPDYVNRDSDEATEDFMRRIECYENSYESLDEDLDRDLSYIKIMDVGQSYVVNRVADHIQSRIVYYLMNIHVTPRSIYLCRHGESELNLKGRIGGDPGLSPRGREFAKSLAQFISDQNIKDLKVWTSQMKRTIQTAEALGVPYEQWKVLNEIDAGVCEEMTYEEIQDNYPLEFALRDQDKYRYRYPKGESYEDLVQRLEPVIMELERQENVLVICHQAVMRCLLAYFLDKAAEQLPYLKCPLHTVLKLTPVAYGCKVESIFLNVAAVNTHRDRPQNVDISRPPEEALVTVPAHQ
Description: (§2) To determine steady-state initial reaction rates, the 2-Kase reactions were performed first and the Fru-2,6-BP produced was measured by a conventional enzyme-coupled kinetics assay as described previously, [36]. Initial rates of decrease in absorbance (Abs) at 340 nm were corrected with the rate of the control reaction in which no Fru-2,6-BP was present. Negative controls were carried out in the absence of enzyme and positive controls indicate the reaction in the presence of enzyme without inhibitor compounds. The percentage of Inhibitory activity was calculated according to the formula: % inhibition = 100×[1−(Absnegativecontrol−Abscompound)/(Absnegativecontrol−Abspositivecontrol)]. IC50 values were determined in quadruplicate. For the kinetic studies, concentrations of one of substrate and inhibitor were varied and decrease in absorbance at 340 nm was measured. The inhibition patterns were analyzed using the program written by Cleland, in which Ki is the dissociation constants for the inhibitor from enzyme-inhibitor complex. For Selectivity studies, the 2-Kase assays were performed first and the F-2,6-P2 produced was measured by an enzyme coupled kinetics assay as described above. The His6-tagged PFKFB isoforms, PFKFB1, PFKFB2, and PFKFB4 were expressed in Escherichia coli C41(DE3) and purified using Ni-NTA affinity columns.

PFKFB2 = target: T2, PFKFB2 (Homo sapiens, UniProt O60825); assay: 2-Kase assay, isoform selectivity; type: biochemical; conditions: N4A = 6 µM, YN1 = 1.3 µM
T2 construct: His6; made in house; host or cells: Escherichia coli C41(DE3)
T2 sequence (O60825 whole entry, canonical isoform): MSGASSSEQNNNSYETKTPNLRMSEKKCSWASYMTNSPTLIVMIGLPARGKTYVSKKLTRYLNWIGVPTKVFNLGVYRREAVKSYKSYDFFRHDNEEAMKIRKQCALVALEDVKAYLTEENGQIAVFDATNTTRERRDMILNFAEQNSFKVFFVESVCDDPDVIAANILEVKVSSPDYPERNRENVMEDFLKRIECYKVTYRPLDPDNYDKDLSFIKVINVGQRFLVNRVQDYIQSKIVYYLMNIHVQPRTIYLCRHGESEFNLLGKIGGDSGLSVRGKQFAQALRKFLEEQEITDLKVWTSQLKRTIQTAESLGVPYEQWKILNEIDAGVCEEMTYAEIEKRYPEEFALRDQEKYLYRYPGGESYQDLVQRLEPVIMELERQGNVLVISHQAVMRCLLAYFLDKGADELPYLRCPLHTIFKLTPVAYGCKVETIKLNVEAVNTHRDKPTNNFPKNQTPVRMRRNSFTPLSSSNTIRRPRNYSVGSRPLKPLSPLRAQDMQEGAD
Description: as §2

PFKFB1 = target: T3, PFKFB1 (Homo sapiens, UniProt P16118); assay: 2-Kase assay, isoform selectivity; type: biochemical; conditions: N4A = 6 µM, YN1 = 1.3 µM
T3 construct: His6; made in house; host or cells: Escherichia coli C41(DE3)
T3 sequence (P16118 whole entry, canonical isoform): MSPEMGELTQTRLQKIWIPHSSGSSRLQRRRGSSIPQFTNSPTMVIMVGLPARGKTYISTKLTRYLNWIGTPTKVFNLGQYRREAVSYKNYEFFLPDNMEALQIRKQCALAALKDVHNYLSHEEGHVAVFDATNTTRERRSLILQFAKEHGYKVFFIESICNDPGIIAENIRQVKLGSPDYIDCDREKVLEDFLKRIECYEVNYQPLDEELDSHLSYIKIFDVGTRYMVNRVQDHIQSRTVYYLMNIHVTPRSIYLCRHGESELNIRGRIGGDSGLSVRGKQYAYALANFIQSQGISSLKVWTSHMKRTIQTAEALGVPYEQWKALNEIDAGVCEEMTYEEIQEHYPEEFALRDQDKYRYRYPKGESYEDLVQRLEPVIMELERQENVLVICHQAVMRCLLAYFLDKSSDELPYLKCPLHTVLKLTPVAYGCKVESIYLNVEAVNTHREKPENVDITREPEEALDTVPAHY
Description: as §2

HeLa and T47D cells = assay: Cell growth inhibition (XTT assay or trypan blue counting); type: cell-based, human; conditions: for Reduction in cell proliferation: 25 µM, human adenocarcinoma cells, compared to unexposed cells; for GI50: Homo sapiens, 36 hours incubation, inhibitor concentration for 50% of vehicle-treated cell growth
Description: as §1

HeLa cells [2] = assay: Lactate secretion (lactate oxidase-based assay kit); type: cell-based, human; conditions: 25 µM
Description: (§3) HeLa cells were plated at a density of 2.5×10^5 in a 6-well plate in DMEM containing 10% FCS. The media were replaced with fresh DMEM containing either vehicle (dimethyl sulfoxide) or 25 µM of inhibitor the following day. After 0, 4, 8, 12, 24, or 48 hours of incubation with each inhibitor, media samples were collected for measuring the lactate secretion levels using a lactate oxidase-based assay kit (Sigma-Aldrich) and the lactate concentration was normalized to the total cellular protein concentration. The Fru-2,6-BP level was determined with collected cells at times of 0, 4,8,12,24, or 48 hours after the treatment, using the method described previously.

HeLa cells [3] = assay: Cellular Fru-2,6-BP level determination; type: cell-based, human; conditions: 25 µM
Description: as §3

HeLa cells [4] = assay: Soft agar colony formation; type: cell-based, human; conditions: 3 weeks; for Soft agar colony formation: HeLa cells, 25, 50 and 100 µM; for inhibition at 25 µM: Homo sapiens, 504 h, HeLa cells
Description: For HeLa cell colony formation was determined by soft agar assay. Cells ([…]) were mixed in DMEM medium containing 0.35% agarose and varying concentrations of N4A or YN1. Then the cell mixture was added on a layer of 0.6% concentration of bottom agar in 24 well plates and allowed to grow for three weeks at 37°Cunder 5% CO2. Fresh medium containing the inhibitors or vehicle (DMSO) was changed every four days. Colonies of 50 cells or more were counted after three weeks. The experiments were repeated at least five times.

human PFKFB3 = target: T4, human PFKFB3 (Homo sapiens, UniProt Q16875); assay: 2-Kase assay and kinetic analysis (enzyme-coupled); type: biochemical; conditions: for Inhibition (type): Lineweaver-Burk analysis; for IC50: PFKFB3 2-Kase activity; for Ki: steady state inhibition against Fru-6-P; for PFKFB3 inhibition at twice the IC50: twice the IC50 for PFKFB3 (N4A = 6 µM, YN1 = 1.3 µM)
T4 construct: The structure contains a total of 443 amino acid residues of the full-length protein of 520 residues; 6xHis; made in house; host or cells: Escherichia coli BL21(DE3) pLysS
T4 sequence (Q16875 whole entry): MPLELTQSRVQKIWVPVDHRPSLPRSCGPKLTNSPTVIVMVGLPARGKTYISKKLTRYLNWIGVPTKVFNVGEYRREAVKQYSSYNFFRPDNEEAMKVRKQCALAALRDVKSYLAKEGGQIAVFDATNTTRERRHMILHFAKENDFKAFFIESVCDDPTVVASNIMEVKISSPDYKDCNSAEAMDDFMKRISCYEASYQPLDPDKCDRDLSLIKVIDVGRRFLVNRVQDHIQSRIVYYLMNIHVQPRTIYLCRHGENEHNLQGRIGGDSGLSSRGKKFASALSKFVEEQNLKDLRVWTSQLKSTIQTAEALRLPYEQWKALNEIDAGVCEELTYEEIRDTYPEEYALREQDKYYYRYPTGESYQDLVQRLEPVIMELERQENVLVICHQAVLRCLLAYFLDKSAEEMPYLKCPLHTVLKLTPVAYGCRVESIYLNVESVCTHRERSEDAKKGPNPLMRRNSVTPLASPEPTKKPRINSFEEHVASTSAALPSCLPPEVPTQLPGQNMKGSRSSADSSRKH
Description: as §2, with “The percentage of Inhibitory activity was calculated according to the formula: % inhibition = 100×[1−(Absnegativecontrol−Abscompound)/(Absnegativecontrol−Abspositivecontrol)].” left out

SMILES | Type of cell death induced (HeLa cells [1]; 25 µM) | Type of cell death induced (HeLa cells [1]; 50 µM) | Type of cell death induced (HeLa cells [1]; Annexin V / PI) | PFKFB4 inhibition at twice the IC50 for PFKFB3 (PFKFB4) | PFKFB2 inhibition at twice the IC50 for PFKFB3 (PFKFB2) | PFKFB1 inhibition at twice the IC50 for PFKFB3 (PFKFB1) | Reduction in cell proliferation (HeLa and T47D cells) | GI50 (HeLa and T47D cells) [nM] | Decrease in lactate secretions (HeLa cells [2]) | Reduction of Fru-2,6-BP level (HeLa cells [3]; 48-hour exposure) | Reduction of Fru-2,6-BP level (HeLa cells [3]; 8 hour exposure) | Soft agar colony formation (HeLa cells [4]) | inhibition at 25 µM (HeLa cells [4]) [%] | Effect of Tween-20 on PFKFB3 inhibition (human PFKFB3; 10 µM compound, in the presence of 0.1% Tween-20) | inhibition at 10 µM (human PFKFB3; 10 µM compound, substrate-saturating conditions) [%] | Inhibition (type) (human PFKFB3) | IC50 (human PFKFB3) [nM] | Ki (human PFKFB3) [nM] | PFKFB3 inhibition at twice the IC50 (human PFKFB3) | Increase in PFKFB3 inhibition compared to N4A (human PFKFB3; relative to lead N4A) [fold]
O=c1cc(-c2ccc(O)cc2)oc2c(O)c(O)c(O)c(O)c12 [N4A, 5,6,7,8-tetrahydroxy-2-(4-hydroxyphenyl) chromen-4-one] | prone to apoptosis | death by necrosis was significantly increased | induced both apoptotic and necrotic cell death | less than 50% | less than 50% | less than 50% | 70% | 14200 ± 1500 | greater than 30% | over 40% | approximately 20% | significantly inhibited colony formation | 64 | not affected | > 65 | competitive inhibitor against Fru-6-P; also recorded: Competitive to Fru-6-P | 2970 ± 160 | 1290 ± 260 | over 80% | –
O=c1c(-c2ccc(O)cc2)coc2c(O)c(O)ccc12 [YN1, 7,8-dihydroxy-3-(4-hydroxyphenyl) chromen-4-one] | prone to apoptosis | death by necrosis was significantly increased | induced both apoptotic and necrotic cell death | less than 40% | less than 40% | less than 40% | over 90% | 8200 ± 800 | greater than 30% | over 40% | approximately 20% | significantly inhibited colony formation | 79 | – | – | Competitive to Fru-6-P | 670 ± 80 | 240 ± 30 | over 80% | 5
CCOC(=O)c1cc2ccc(O)cc2oc1=O [YZ9, ethyl 7-hydroxy-2-oxochromene-3-carboxylate] | – | – | – | – | – | – | – | 2700 ± 200 | – | – | – | – | – | – | – | – | – | – | – | –
